The source of these data is patent publication US8778643B2, “Methods for increasing lipid levels and producing triacylglycerols in algae” (priority 2012, dated 2014).

One assay deals with CDC25 phosphatase 25A (Homo sapiens, UniProt P30304). As to conditions: cited from earlier work.
The target in another assay is CDC25 phosphatase 25C (Homo sapiens, UniProt P30307). The settings on record: cited from earlier work.
The target in assay [1] is T1, CDC25 phosphatase 25C-cat (Homo sapiens, UniProt P30307).
T1 construct: 25C-cat
T1 sequence (P30307 321-428 limits assumed): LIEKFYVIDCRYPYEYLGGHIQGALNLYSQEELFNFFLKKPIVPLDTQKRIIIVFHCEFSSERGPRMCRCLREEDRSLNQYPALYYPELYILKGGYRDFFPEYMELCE
The settings on record: cited from earlier work.

Assay [2] concerns Phaeodactylum tricornutum. Description: Microplate assay: growth (absorbance 680 nm) and intracellular lipids (Nile Red fluorescence). In kind it is cell-based. As to conditions: P. tricornutum; 10 μM; DMSO delivery; added t=day 0.
Procedure: Stock cultures were aerated by stirring with bubbling air (homemade manifold with Petco air pump, 2-4% CO2) or by orbital shaking (Thermo Scientific MAXQ 2000) at a constant speed of 150 rpm at 22±3° C. with a 16:8 hour light/dark cycle. Stocks were kept at stationary phase for use. Algae were prepared as dictated by culture center.
Compounds were selected based on reported biological activity in non-microalgae organisms. To ensure that compounds retained their quality, they were stored under advised conditions after purchasing from the manufacturer. Solutions of all assay compounds were prepared as 10 mM stock solutions by dissolving in DMSO in 2-dram amber vials and then stored in darkness −20° C. 96-well PCR plates were used to create a stock plate layout that was then transferred to the algae microplates. A plate map was used to distribute each compound to a well based on molecule name, collection number, and CAS number. For 20 μM and 200 nM assay plates, 10 mM compound stock in DMSO was diluted into plate maps of 5 mM and 50 μM assay stocks, respectively.
All materials for assay experiments were autoclaved before each use to maintain axenic algae cultures. Algae species were checked for homogeneity using a TS-100 light microscope (Nikon, Japan). […] Diluted stock solutions were made immediately prior to use for consistency and optimal plate growth. Cell density was measured on a Thermo Scientific Genesys 10S Vis Spectrophotometer (ThermoFisher, San Jose), using a 1 mL cuvette at 680 nm.
Plates were originally run in triplicate, before replicates were increased to quadruplicate, along with a separate control plate to compare growth. Due to extensive evaporation in exterior wells over time, our unique algae plate layout was designed to use the 60 interior wells out of 96 wells for the experiment. The 36 outer wells were filled with Millipore water and media to prevent evaporation and edge effects in the inner algae wells, as well as serve as blanks. The 60 wells with algae contained a total volume of 251 μL (100 μL of media+DMSO compound stock +150 μL dilute algae stock). For 20 μM and 200 nM assay plates, 10 mM compound stock in DMSO is diluted into plate maps of 5 mM and 50 μM assay stocks, respectively. […] Plates were parafilmed during growth to limit the amount of evaporation that can occur. Plates were numbered, and numerically ordered to ensure they got the same shaker space.
The shakers are kept at a constant shaking of 150 rpm. Ambient temperature is 22±3° C.
The next assay addresses CDK6 (Homo sapiens, UniProt Q00534). The settings on record: cited from earlier work.
The subject of the next assay is Nannochloris sp. The assay is described as follows: Microplate assay: growth (absorbance 680 nm) and intracellular lipids (Nile Red fluorescence). It counts as cell-based.
The next assay relates to Nannochloropsis sp. Description: Microplate assay: increase of lipid production (Table 17). It counts as cell-based. As to conditions: best conc. 2.4 nM. An excerpt:
We also tested a collection with more antioxidants, kinase inhibitors, and further compounds for increase of lipid production with N. salina, P. tricornutum, N. oculata, and Nannochloropsis sp.

In the next assay the target is arachidonate 15-LO (Homo sapiens, UniProt P16050). The settings on record: cited from earlier work.
Sequence of arachidonate 15-LO (P16050 whole entry): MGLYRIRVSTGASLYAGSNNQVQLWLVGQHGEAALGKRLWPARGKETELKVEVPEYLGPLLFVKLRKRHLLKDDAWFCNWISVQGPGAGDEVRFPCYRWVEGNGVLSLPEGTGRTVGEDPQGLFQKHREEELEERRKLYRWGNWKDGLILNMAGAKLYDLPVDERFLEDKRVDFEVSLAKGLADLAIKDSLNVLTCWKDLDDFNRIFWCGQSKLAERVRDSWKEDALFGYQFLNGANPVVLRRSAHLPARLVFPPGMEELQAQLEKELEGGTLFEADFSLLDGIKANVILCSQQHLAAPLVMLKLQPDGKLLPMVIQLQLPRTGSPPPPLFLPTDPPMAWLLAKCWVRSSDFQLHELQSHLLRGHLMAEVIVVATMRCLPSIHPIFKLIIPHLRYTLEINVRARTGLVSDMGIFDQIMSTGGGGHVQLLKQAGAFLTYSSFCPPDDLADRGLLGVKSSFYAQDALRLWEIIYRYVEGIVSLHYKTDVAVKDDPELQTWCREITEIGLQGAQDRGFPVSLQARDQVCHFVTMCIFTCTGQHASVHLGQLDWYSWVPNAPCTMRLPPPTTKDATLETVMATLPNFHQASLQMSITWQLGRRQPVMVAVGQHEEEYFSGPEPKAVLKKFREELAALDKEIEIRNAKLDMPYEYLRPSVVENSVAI
Setting [3] is: 200 nM, initial microplate screen, relative to control.

By IC50 is commonly meant the point on the concentration scale where inhibition reaches its midpoint.

Sequence of CDC25 phosphatase 25C (P30307 whole entry): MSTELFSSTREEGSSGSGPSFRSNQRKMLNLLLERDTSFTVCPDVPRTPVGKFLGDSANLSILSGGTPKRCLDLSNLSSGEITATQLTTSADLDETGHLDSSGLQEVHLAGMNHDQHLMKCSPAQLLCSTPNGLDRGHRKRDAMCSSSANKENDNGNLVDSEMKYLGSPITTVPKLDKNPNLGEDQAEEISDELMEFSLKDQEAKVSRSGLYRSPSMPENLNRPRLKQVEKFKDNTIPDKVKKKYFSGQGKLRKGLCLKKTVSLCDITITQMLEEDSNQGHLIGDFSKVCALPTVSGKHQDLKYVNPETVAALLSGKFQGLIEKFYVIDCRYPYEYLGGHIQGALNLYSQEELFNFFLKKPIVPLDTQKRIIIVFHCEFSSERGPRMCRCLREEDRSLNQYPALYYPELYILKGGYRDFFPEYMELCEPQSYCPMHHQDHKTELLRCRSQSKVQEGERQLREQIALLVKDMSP
Sequence of CDK6 (Q00534 whole entry, looked up): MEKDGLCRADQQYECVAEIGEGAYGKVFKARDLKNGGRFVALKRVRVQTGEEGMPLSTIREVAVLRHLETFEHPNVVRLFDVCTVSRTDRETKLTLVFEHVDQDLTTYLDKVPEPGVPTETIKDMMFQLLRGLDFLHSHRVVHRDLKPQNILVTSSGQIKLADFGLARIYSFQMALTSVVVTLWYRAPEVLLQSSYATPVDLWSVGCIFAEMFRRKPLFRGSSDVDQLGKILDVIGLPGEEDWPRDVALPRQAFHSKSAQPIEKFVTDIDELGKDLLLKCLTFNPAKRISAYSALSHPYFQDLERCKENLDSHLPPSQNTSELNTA
Sequence of CDC25 phosphatase 25A (P30304 whole entry): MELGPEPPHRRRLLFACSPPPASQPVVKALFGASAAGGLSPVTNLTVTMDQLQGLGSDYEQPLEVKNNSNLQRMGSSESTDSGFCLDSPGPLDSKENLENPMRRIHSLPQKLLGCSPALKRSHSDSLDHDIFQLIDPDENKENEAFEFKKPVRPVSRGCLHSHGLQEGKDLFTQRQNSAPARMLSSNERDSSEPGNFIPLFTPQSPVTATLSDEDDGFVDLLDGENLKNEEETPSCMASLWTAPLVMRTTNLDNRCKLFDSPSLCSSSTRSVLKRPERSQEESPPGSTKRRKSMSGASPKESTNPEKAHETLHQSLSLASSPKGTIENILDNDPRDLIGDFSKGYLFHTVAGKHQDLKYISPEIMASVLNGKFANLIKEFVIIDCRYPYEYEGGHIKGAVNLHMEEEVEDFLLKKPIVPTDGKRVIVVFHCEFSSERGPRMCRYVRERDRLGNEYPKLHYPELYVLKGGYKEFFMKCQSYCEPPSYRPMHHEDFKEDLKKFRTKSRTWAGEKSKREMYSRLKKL

As for “6-Chloro-7-(2-morpholin-4-yl-ethylamino)-quinoline-5,8-dione [CDC25 Phosphatase Inhibitor I]”, the IC50 is 2.4 µM at CDC25 phosphatase 25A, 5.4 µM at CDC25 phosphatase 25C and 4.6 µM in assay [1].
Turning to `CCNc1cc(N[C@H]2CC[C@H](O)CC2)nc(Nc2ccc3c(ccn3Cc3ccccc3)c2)n1` [CDK4/6 Inhibitor 4, trans-4-((6-(ethylamino)-2-((1-(phenylmethyl)-1H-indol-5-yl)amino)-4-pyrimidinyl)amino)-cyclohexanol], the “% Increase based on Nile Red Fluorescence Intensity” value in assay [2] was 50%. Besides, the IC50 on CDK6 was 5.6 µM.
Turning to `CC(=O)Nc1ccc(O)cc1` [Acetaminophen, N-(4-hydroxyphenyl)ethanamide], in the assay on Nannochloris sp. (setting [3]), the “Absorbance (percent increase)” value was −6.7% and the “Nile Red percent increase” value was 68.9%. Also, the “Nile Red Fluorescence % Increase” value in the assay with Nannochloris sp. (Nannochloris sp., compounds tested at 20 μM, initial screening, p<0.05) turned out to be 89.7%. Further, in the assay on Nannochloropsis sp., the “% Inc” value was 13.11%. On arachidonate 15-LO, the IC50 was 28.4 µM.
